Measurements taken from patent publication US8173841B2, “Tetrahydro-naphthalene derivatives” (Xention Limited, priority 2003, dated 2012).

Columns and labels:
human VR1 = molecular target: T1, human VR1 (Homo sapiens, UniProt Q8NER1); assay: Capsaicin-induced Ca2+ influx in the human VR1-transfected CHO cell line (Assay 1); assay type: cell-based; details: human VR1-CHOluc9aeq cells, stimulation with 10 nM capsaicin, Fluo-3 AM / FDSS-3000; compounds of purity about 40 to 90%; read-out: Activity Class (IC50 of capsaicin-induced Ca2+ influx)
T1 construct: expressed in transfected cells
Excerpt: [Measurement of Capsaicin-Induced Ca^2+ Influx in the Human VR1-Transfected CHO Cell Line] (Assay 1)
(1) Establishment of the Human VR1-CHOluc9aeq Cell Line
Human vanilloid receptor (hVR1) cDNA was cloned from libraries of axotomized dorsal root ganglia (WO 00/29577). The cloned hVR1 cDNA was constructed with pcDNA3 vector and transfected into a CHOluc9aeq cell line. The cell line contains aequorin and CRE-luciferase reporter genes as read-out signals. The transfectants were cloned by limiting dilution in selection medium (DMEM/F12 medium (Gibco BRL) supplemented with 10% FCS, 1.4 mM Sodium pyruvate, 20 mM HEPES, 0.15% Sodium bicarbonate, 100 U/ml penicillin, 100 μg/ml streptomycin, 2 mM glutamine, non-essential amino acids and 2 mg/ml G418). Ca^2+ influx was examined in the capsaicin-stimulated clones. A high responder clone was selected and used for further experiments in the project. The human VR1-CHOluc9aeq cells were maintained in the selection medium and passaged every 3-4 days at 1−2.5×10^5 cells/flask ([…]).
(2) Measurement of Ca^2+ influx using FDSS-3000
Human VR1-CHOluc9aeq cells were suspended in a culture medium which is the same as the selection medium except for G418 and seeded at a density of 1,000 cells per well into 384-well plates (black walled clear-base/Nalge Nunc International). Following the culture for 48 hrs the medium was changed to 2 μM Fluo-3 AM (Molecular Probes) and 0.02% Puronic F-127 in assay buffer (Hank's balanced salt solution (HBSS), 17 mM HEPES (pH7.4), 1 mM Probenecid, 0.1% BSA) and the cells were incubated for 60 min at 25° C. After washing twice with assay buffer the cells were incubated with a test compound or vehicle for 20 min at 25° C. Mobilization of cytoplasmic Ca^2+ was measured by FDSS-3000 (λex=488 nm, λem=540 nm/Hamamatsu Photonics) for 60 sec after the stimulation with 10 nM capsaicin. Integral R was calculated and compared with controls.
The data corresponds to the compounds as yielded by solid phase synthesis and thus to levels of purity of about 40 to 90%. For practical reasons, the compounds are grouped in four classes of activity as follows: IC50=A (< or =) 0.1 μM<B (< or =) 0.5 μM<C (< or =) 1 μM<D

T1 sequence (Q8NER1 whole entry): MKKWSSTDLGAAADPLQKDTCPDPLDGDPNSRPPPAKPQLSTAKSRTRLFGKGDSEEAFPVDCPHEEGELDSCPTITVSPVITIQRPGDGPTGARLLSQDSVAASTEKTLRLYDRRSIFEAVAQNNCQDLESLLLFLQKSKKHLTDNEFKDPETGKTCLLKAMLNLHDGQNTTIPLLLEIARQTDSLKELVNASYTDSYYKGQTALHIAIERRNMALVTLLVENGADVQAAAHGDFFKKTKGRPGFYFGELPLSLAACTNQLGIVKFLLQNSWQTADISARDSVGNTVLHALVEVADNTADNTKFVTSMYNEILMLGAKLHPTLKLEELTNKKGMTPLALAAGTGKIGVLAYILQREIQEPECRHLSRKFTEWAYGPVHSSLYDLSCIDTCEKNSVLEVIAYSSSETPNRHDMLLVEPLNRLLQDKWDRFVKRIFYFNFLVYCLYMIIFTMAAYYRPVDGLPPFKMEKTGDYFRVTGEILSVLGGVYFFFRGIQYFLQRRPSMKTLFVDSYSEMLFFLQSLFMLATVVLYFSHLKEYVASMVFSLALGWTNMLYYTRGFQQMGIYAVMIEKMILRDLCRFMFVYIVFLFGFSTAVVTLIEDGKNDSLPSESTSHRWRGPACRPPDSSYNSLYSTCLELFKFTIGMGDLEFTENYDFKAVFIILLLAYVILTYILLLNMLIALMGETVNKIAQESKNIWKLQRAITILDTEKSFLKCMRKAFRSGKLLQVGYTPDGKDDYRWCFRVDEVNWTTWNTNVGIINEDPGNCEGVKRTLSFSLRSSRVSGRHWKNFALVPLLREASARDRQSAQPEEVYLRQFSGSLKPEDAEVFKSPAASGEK

Row | IC50 (human VR1) [nM] | melting point [°C] | Compound
1 | < 100 | 195 | O=C(Nc1cccc(-c2cccc(OC(F)(F)F)c2)c1)Nc1cccc2c1CC(O)CC2 (centres unmarked) [Example 1-24]
2 | < 100 | 191 to 192 | O=C(NCc1ccc(-c2cccc(F)c2)cc1)Nc1cccc2c1CC(O)CC2 (centres unmarked) [Example 1-38]
3 | < 100 | 208 | O=C(Nc1cccc(-c2ccc(Cl)cc2Cl)c1)Nc1cccc2c1CC(O)CC2 (centres unmarked) [Example 1-21]
4 | < 100 | 216 to 217 | CSc1ccc(-c2ccc(CNC(=O)Nc3cccc4c3CC(O)CC4)cc2)cc1 (centres unmarked) [Example 1-46]
5 | < 100 | 223 to 224 | COc1ccc(-c2cccc(CNC(=O)Nc3cccc4c3CC(O)CC4)c2)cc1OC (centres unmarked) [Example 1-62]
6 | < 100 | 209 | O=C(Nc1cccc(-c2cc(Cl)ccc2Cl)c1)Nc1cccc2c1CC(O)CC2 (centres unmarked) [Example 1-22]
7 | < 100 | 129 to 130 | COc1ccccc1-c1cccc(CNC(=O)Nc2cccc3c2CC(O)CC3)c1 (centres unmarked) [Example 1-61]
8 | < 100 | 188 to 189 | O=C(NCc1cccc(-c2ccc(F)c(F)c2)c1)Nc1cccc2c1CC(O)CC2 (centres unmarked) [Example 1-65]
9 | < 100 | 152 to 153 | O=C(NCc1cccc(-c2ccc(Cl)cc2Cl)c1)Nc1cccc2c1CC(O)CC2 (centres unmarked) [Example 1-72]
10 | < 100 | 199 to 200 | O=C(NCc1ccc(-c2ccc(OC(F)(F)F)cc2)cc1)Nc1cccc2c1CC(O)CC2 (centres unmarked) [Example 1-43]
11 | < 100 | 194 to 195 | O=C(NCc1cccc(-c2ccc(F)cc2)c1)Nc1cccc2c1CC(O)CC2 (centres unmarked) [Example 1-55]
12 | < 100 | 181 to 182 | Cc1ccc(C)c(-c2ccc(CNC(=O)Nc3cccc4c3CC(O)CC4)cc2)c1 (centres unmarked) [Example 1-37]
13 | < 100 | 204 | O=C(Nc1cccc(-c2cccc(Cl)c2Cl)c1)Nc1cccc2c1CC(O)CC2 (centres unmarked) [Example 1-20]
14 | < 100 | 215 | CN(C)c1ccc(-c2cccc(NC(=O)Nc3cccc4c3CC(O)CC4)c2)cc1 (centres unmarked) [Example 1-26]
15 | < 100 | 205 to 206 | CN(C)c1ccc(-c2ccc(CNC(=O)Nc3cccc4c3CC(O)CC4)cc2)cc1 (centres unmarked) [Example 1-30]
16 | < 100 | 94 to 96 | O=C(Nc1cccc(-c2ccc(Cl)c(F)c2)c1)Nc1cccc2c1CC(O)CC2 (centres unmarked) [Example 1-3]
17 | < 100 | 215 to 217 | O=C(Nc1cccc2c1CC(O)CC2)c1ccc(-c2ccccc2)cc1 (centres unmarked) [Example 2-4]
18 | < 100 | 201 to 202 | O=C(NCc1ccc(-c2ccc(F)cc2)cc1)Nc1cccc2c1CC(O)CC2 (centres unmarked) [Example 1-45]
19 | < 100 | 202 to 203 | CC(C)c1ccc(-c2cccc(CNC(=O)Nc3cccc4c3CC(O)CC4)c2)cc1 (centres unmarked) [Example 1-70]
20 | < 100 | 205 to 206 | Cc1cc(C)cc(-c2ccc(CNC(=O)Nc3cccc4c3CC(O)CC4)cc2)c1 (centres unmarked) [Example 1-51]
21 | < 100 | 223 | O=C(Nc1cccc(-c2cccc3ccccc23)c1)Nc1cccc2c1CC(O)CC2 (centres unmarked) [Example 1-75]
22 | < 100 | 210.4 to 212.7 | O=C(Nc1cccc2c1CC(O)CC2)c1ccc(-c2ccc(F)c(F)c2)cc1 (centres unmarked) [Example 2-1, 3′,4′-Difluoro-N-(7-hydroxy-5,6,7,8-tetrahydronaphthalen-1-yl)biphenyl-4-carboxamide]
23 | < 100 | 139 to 140 | O=C(NCc1ccc(-c2cc(Cl)ccc2Cl)cc1)Nc1cccc2c1CC(O)CC2 (centres unmarked) [Example 1-34]
24 | < 100 | 195 to 196 | CSc1ccc(-c2cccc(CNC(=O)Nc3cccc4c3CC(O)CC4)c2)cc1 (centres unmarked) [Example 1-68]
25 | < 100 | 211 to 212 | Cc1ccc(-c2ccc(CNC(=O)Nc3cccc4c3CC(O)CC4)cc2)cc1 (centres unmarked) [Example 1-32]
